# According to ChEMBL document CHEMBL1156471, “Targeting host cell furin proprotein convertases as a therapeutic strategy against bacterial toxins and viral pathogens” (J Biol Chem, 2007):
# Non-standard residues stand in square brackets, D forms with d. Residues, ends and D or L forms follow the SMILES beside them. Sar = CNCC(=O)O
# Molecular target: Furin (Homo sapiens, UniProt P09958)
# Sequence (P09958 whole entry): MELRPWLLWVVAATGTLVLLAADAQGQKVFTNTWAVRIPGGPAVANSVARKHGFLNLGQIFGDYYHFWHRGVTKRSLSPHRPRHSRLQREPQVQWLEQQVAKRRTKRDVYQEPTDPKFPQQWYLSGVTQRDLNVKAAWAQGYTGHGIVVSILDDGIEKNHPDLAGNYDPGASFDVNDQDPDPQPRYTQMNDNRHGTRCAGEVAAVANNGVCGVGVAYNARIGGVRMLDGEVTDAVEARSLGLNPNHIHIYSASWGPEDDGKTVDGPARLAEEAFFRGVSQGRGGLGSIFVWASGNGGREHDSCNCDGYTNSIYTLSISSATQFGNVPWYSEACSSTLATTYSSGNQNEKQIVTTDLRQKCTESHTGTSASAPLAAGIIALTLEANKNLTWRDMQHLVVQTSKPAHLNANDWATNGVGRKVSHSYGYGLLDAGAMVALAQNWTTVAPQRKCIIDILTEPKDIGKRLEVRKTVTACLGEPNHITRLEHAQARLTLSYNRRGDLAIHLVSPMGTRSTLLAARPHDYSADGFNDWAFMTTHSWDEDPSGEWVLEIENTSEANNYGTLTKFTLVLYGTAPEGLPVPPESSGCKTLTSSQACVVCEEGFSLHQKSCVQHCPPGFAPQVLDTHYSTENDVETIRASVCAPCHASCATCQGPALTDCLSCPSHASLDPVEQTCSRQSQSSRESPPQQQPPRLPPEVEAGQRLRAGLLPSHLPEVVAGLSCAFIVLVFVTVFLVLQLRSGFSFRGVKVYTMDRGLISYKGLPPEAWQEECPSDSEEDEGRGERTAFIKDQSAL
row,SMILES,Ki [nM]
1,C[C@@H](O)[C@H](N)C(=O)N1CCC[C@H]1C(=O)N[C@@H](CCCNC(=N)N)C(=O)NCCCCCC(=O)N[C@@H](CCCNC(=N)N)C(=O)N[C@@H](CCCNC(=N)N)C(=O)N[C@@H](CCCNC(=N)N)C(=O)N[C@@H](CCCCN)C(=O)N[C@@H](CCCCN)C(=O)N[C@@H](CCCNC(=N)N)C(=O)NCC(=O)O,> 100
2,C[C@@H](O)[C@H](N)C(=O)N1CCC[C@H]1C(=O)N[C@@H](CCCNC(=N)N)C(=O)NCCC(=O)N[C@@H](CCCNC(=N)N)C(=O)N[C@@H](CCCNC(=N)N)C(=O)N[C@@H](CCCNC(=N)N)C(=O)N[C@@H](CCCCN)C(=O)N[C@@H](CCCCN)C(=O)N[C@@H](CCCNC(=N)N)C(=O)NCC(=O)O,> 100
3,C[C@H](N)C(=O)N[C@@H](C)C(=O)N[C@@H](C)C(=O)N[C@@H](CCC(=O)O)C(=O)N[C@@H](CCCNC(=N)N)C(=O)N[C@@H](CCCNC(=N)N)C(=O)N[C@@H](CCCNC(=N)N)C(=O)N[C@@H](CCCCN)C(=O)N[C@@H](CCCCN)C(=O)N[C@@H](CCCNC(=N)N)C(=O)N(C)CC(=O)O (H-AAAERRRKKR[Sar]-OH),> 100
4,C[C@H](N)C(=O)N[C@@H](C)C(=O)N[C@@H](CCCN=C(N)N)C(=O)N[C@@H](CCC(=O)O)C(=O)N[C@@H](CCCN=C(N)N)C(=O)N[C@@H](CCCN=C(N)N)C(=O)N[C@@H](CCCN=C(N)N)C(=O)N[C@@H](CCCCN)C(=O)N[C@@H](CCCCN)C(=O)N[C@@H](CCCN=C(N)N)C(=O)N(C)CC(=O)O (H-AARERRRKKR[Sar]-OH),> 100
5,C[C@H](N)C(=O)N1CCC[C@H]1C(=O)N[C@@H](CCCNC(=N)N)C(=O)N[C@@H](CCC(=O)O)C(=O)N[C@@H](CCCNC(=N)N)C(=O)N[C@@H](CCCNC(=N)N)C(=O)N[C@@H](CCCNC(=N)N)C(=O)N[C@@H](CCCCN)C(=O)N[C@@H](CCCCN)C(=O)N[C@@H](CCCNC(=N)N)C(=O)N(C)CC(=O)O (H-APRERRRKKR[Sar]-OH),> 100
6,C[C@H](NC(=O)[C@H](C)NC(=O)[C@@H](N)[C@@H](C)O)C(=O)N[C@@H](CCC(=O)O)C(=O)N[C@@H](CCCNC(=N)N)C(=O)N[C@@H](CCCNC(=N)N)C(=O)N[C@@H](CCCNC(=N)N)C(=O)N[C@@H](CCCCN)C(=O)N[C@@H](CCCCN)C(=O)N[C@@H](CCCNC(=N)N)C(=O)N(C)CC(=O)O (H-TAAERRRKKR[Sar]-OH),> 100
7,C[C@H](NC(=O)[C@@H](N)[C@@H](C)O)C(=O)N[C@@H](CCCNC(=N)N)C(=O)N[C@@H](CCC(=O)O)C(=O)N[C@@H](CCCNC(=N)N)C(=O)N[C@@H](CCCNC(=N)N)C(=O)N[C@@H](CCCNC(=N)N)C(=O)N[C@@H](CCCCN)C(=O)N[C@@H](CCCCN)C(=O)N[C@@H](CCCNC(=N)N)C(=O)N(C)CC(=O)O (H-TARERRRKKR[Sar]-OH),> 100
8,C[C@H](NC(=O)[C@H](C)NC(=O)[C@@H]1CCCN1C(=O)[C@@H](N)[C@@H](C)O)C(=O)N[C@@H](C)C(=O)N[C@@H](CCCNC(=N)N)C(=O)N[C@@H](CCCNC(=N)N)C(=O)N[C@@H](CCCCN)C(=O)N[C@@H](CCCCN)C(=O)N[C@@H](CCCNC(=N)N)C(=O)N(C)CC(=O)O (H-TPAAARRKKR[Sar]-OH),> 100
9,C[C@H](NC(=O)[C@H](C)NC(=O)[C@@H]1CCCN1C(=O)[C@@H](N)[C@@H](C)O)C(=O)N[C@@H](CCCN=C(N)N)C(=O)N[C@@H](CCCN=C(N)N)C(=O)N[C@@H](CCCN=C(N)N)C(=O)N[C@@H](CCCCN)C(=O)N[C@@H](CCCCN)C(=O)N[C@@H](CCCN=C(N)N)C(=O)N(C)CC(=O)O (H-TPAARRRKKR[Sar]-OH),> 100
10,C[C@H](NC(=O)[C@@H]1CCCN1C(=O)[C@@H](N)[C@@H](C)O)C(=O)N[C@@H](CCC(=O)O)C(=O)N[C@@H](CCCNC(=N)N)C(=O)N[C@@H](CCCNC(=N)N)C(=O)N[C@@H](CCCNC(=N)N)C(=O)N[C@@H](CCCCN)C(=O)N[C@@H](CCCCN)C(=O)N[C@@H](CCCNC(=N)N)C(=O)N(C)CC(=O)O (H-TPAERRRKKR[Sar]-OH),> 100
